Assay results published in article PMC12294558, “New 1,2,4-Triazole Derivatives with a N-Mannich Base Structure Based on a 4,6-Dimethylpyridine Scaffold as Anticancer Agents: Design, Synthesis, Biological Evaluation, and Molecular Modeling” (International Journal of Molecular Sciences, 2025).
Marks after values point to notes of the source that are not given here.

How the values were obtained:
[1] = MTT viability assay, normal colonic epithelial cells; format: cell-based, human; conditions: human, CCD 841 CoTr normal colonic epithelial cells, Non-toxic = no toxicity in tested range 1–500 μM, read-out: CC50 ± SD, CCD 841 CoTr
Description: (§1) The cytotoxic effects of ten newly synthesized N-Mannich bases were assessed on the normal human intestinal epithelium (CCD 841 CoTr) and cancer cell lines: gastric cancer (EPG) and four colorectal cancer lines (Caco-2, LoVo, LoVo/Dx, and HT-29). Cell viability was evaluated using the MTT assay in accordance with Annex C of ISO 10993-5 [33].
(§2) The biological activity of the newly synthesized compounds was assessed in the context of anticancer activity. For this purpose, several gastrointestinal cancer lines were selected: gastric cancer (EPG 257, which belongs to the collection of the Laboratory of Cell Culture and Advanced Therapy at the University of Environmental and Life Sciences in Wrocław), and four colorectal cancer cell lines (LoVo, Caco-2, and HT-29) were obtained from the European Collection of Authenticated Cell Cultures (ECACC) and were delivered by Sigma-Aldrich, a certified distributor for the biobank. Additionally, LoVo cells were used to develop a doxorubicin-resistant subline, referred to as LoVo/Dx. Resistance was induced through gradual adaptation to increasing concentrations of doxorubicin, starting from 0.1 µg/mL and incrementally raised to 0.8 µg/mL. After reaching the maximum concentration, the cells were maintained in a medium containing 0.4 µg/mL doxorubicin for a period of three months to stabilize the resistant phenotype. […] The resulting LoVo/Dx subline, resistant to doxorubicin, was cultured in DMEM/F-12 medium and utilized in assays evaluating the effectiveness of novel compounds against multidrug-resistant cancer cells. […] The non-cancerous cell control was normal colonic epithelial cells (CCD 841 CoTr from American Type Culture Collection, (ATCC, Manassas, VA, USA)). Cell cultures were performed under standard conditions (5% CO2, 95% humidity, and 37 °C). Each cell line was cultured in the recommended medium: (1) HT-29 in McCoy’s 5a, (2) Caco-2 in Minimal Essential Medium (MEM, Biological Industries, Beit Haemek, Israel), (3) CCD 841 CoTr in Dulbecco’s Modified Eagle Medium (DMEM, Biological Industries, Beit Haemek, Israel), (4) LoVo in Dulbecco’s Modified Eagle Medium/F-12 (DMEM/F-12; Biological Industries, Beit Haemek, Israel), (5) LoVo/Dx in DMEM/F-12, and (6) EPG in DMEM. Culture media were supplemented with 10% fetal bovine serum (FBS, Sigma-Aldrich, Darmstadt, Germany) and antibiotics (penicillin and streptomycin; Sigma-Aldrich, Darmstadt, Germany). For assays, trypsinized (TrypLE solution, Thermo Fisher Scientific, Waltham, MA, USA) cells were seeded at appropriate densities of 10,000 cells per well for MTT and determination of apoptotic and necrotic cell numbers; 30,000 cells per well for the rhodamine accumulation assay; and 500,000 cells per well for ELISA tests.
(§3) The cytotoxicity of the compounds and drugs used as controls was assessed using the MTT assay. The assay also included a DMSO control. After seeding and allowing the cells to adhere overnight, they were treated with the tested compounds and drugs for another 24 h. After this time, the supernatant was removed, and a 1 mg/mL MTT solution was added for 2 h in 5% CO2, 95% humidity, at 37 °C. The supernatant was then removed, and isopropanol was added to dissolve the purple crystals over 30 min by shaking. Absorbance was measured at 570 nm in a Multiskan GO microplate reader (Thermo Fisher Scientific; Waltham, MA, USA). All reagents used for the assays were purchased from Sigma-Aldrich, Darmstadt, Germany.
(§4) Biological assays were performed in three independent replicates, each involving four samples. ELISA determinations were repeated three times.

EPG cells = assay: MTT viability assay, gastric cancer cells; format: cell-based, human; conditions: for SI, EPG: CC50 CCD 841 CoTr / CC50 EPG; for CC50: Homo sapiens, MTT, 24 h, read-out: CC50 ± SD, EPG
Description: as §1, §2, §3, §4

Caco-2 cells = assay: MTT viability assay, colorectal cancer cells Caco-2; format: cell-based, human; conditions: for SI, Caco-2: CC50 CCD 841 CoTr / CC50 Caco-2; for CC50: Homo sapiens, Caco-2, MTT, 24 h, read-out: CC50 ± SD, Caco-2
Description: as §1, §2, §3, §4

LoVo cells = assay: MTT viability assay, colorectal cancer cells LoVo; format: cell-based, human; conditions: for SI, LoVo: CC50 CCD 841 CoTr / CC50 LoVo; for CC50: Homo sapiens, LoVo, MTT, 24 h, Non-toxic = no toxicity in tested range 1–500 μM, read-out: CC50 ± SD, LoVo
Description: as §1, §2, §3, §4

LoVo/Dx cells = assay: MTT viability assay, doxorubicin-resistant LoVo/Dx; format: cell-based, human; conditions: for SI, LoVo/Dx: CC50 CCD 841 CoTr / CC50 LoVo/Dx; for CC50: Homo sapiens, LoVo/DX, MTT, 24 h, read-out: CC50 ± SD, LoVo/Dx
Description: as §1, §2, §3, §4

HT-29 cells = assay: MTT viability assay, colorectal cancer cells HT-29; format: cell-based, human; conditions: for SI, HT-29: CC50 CCD 841 CoTr / CC50 HT-29; for CC50: Homo sapiens, HT-29, MTT, 24 h, read-out: CC50 ± SD, HT-29
Description: as §1, §2, §3, §4

CCD 841 CoTr cells = assay: MTT viability assay, normal colonic epithelial cells; format: cell-based, human; conditions: 24 h, Non-toxic = no toxicity in tested range 1–500 μM
Description: as §1, §2, §3, §4

p53 = p53 Human ELISA on HT-29 cell lysates; format: cell-based; conditions: HT-29, 1 µM, 24 h
Description: (§5) To check the effect of compound 6 on the level of p-53 and caspase-3 protein, another test was performed on HT-29 cells, taking doxorubicin as the reference drug.
(§6) To assess the level of caspase-3 and p53 protein, HT-29 cell lysates were used after 24 h of incubation with compounds 5 and 6. The supernatant was collected in the prepared and labeled tubes, the cells from the wells were scraped, and the wells were washed with cold PBS, which was also collected. The tubes were then centrifuged, the supernatant was removed, and the cell pellet was lysed in a cell extraction vessel for 30 min on ice, with […] every 10 min. The lysate was transferred to centrifuge tubes and centrifuged at 13,000 rpm for 10 min at 4 °C. The supernatant was transferred to clean tubes in a microcentrifuge.
(§7) The following kits were used: Human Caspase-3 (active) ELISA Kit (KHO1091) and p53 Human ELISA Kit (BMS256), used following the manufacturer’s instructions. ELISA kits were purchased from Thermo Fisher Scientific (Waltham, MA, USA). The absorbance was measured using a Multiskan GO microplate reader (Thermo Fisher Scientific, Waltham, MA, USA) at wavelengths specific to each kit, as recommended by the manufacturer.

Caspase-3 = assay: Human Caspase-3 (active) ELISA on HT-29 cell lysates; format: cell-based; conditions: HT-29, 1 µM, 24 h
Description: as §5, §6, §7

HepG2 cells = test system: HepG2 cells; set-up: method as in PMID 36181443; conditions: cited from earlier work

Row | SMILES | CC50 at 24 h [1] [µM] | SI, EPG (EPG cells) | CC50 (EPG cells) [µM] | SI, Caco-2 (Caco-2 cells) | CC50 (Caco-2 cells) [µM] | SI, LoVo (LoVo cells) | CC50 (LoVo cells) [µM] | SI, LoVo/Dx (LoVo/Dx cells) | CC50 (LoVo/Dx cells) [µM] | SI, HT-29 (HT-29 cells) | CC50 (HT-29 cells) [µM] | CC50 ± SD, CCD 841 CoTr (CCD 841 CoTr cells) | p53 Conc. ± SD (p53) [U/mL] | p53 Fold Change (p53; versus untreated control) | Caspase-3 Conc. ± SD (Caspase-3) [ng/mL] | Caspase-3 Fold Change (Caspase-3; versus untreated control) | IC50 (HepG2 cells) [µM]
1 | Cc1cc(C)c(C(=O)NCc2nn(CN3CCN(c4ccccc4)CC3)c(=S)n2-c2ccccc2)c(S)n1 [Compound 4] | 236 ± 3.5 | 1.68 | 141 ± 2.5 | 1.78 | 133 ± 2.7 | 1.18 | 201 ± 4.6 | 1.17 | 201 ± 4.1 | 1.26 | 187.6 ± 1.6 | – | – | – | – | – | –
2 | O=c1[nH]cc(F)c(=O)[nH]1 [Compound 5-FU, 5-fluorouracil, reference compound] | 61.6 ± 3.7 | 0.55 | 111 ± 3.5 | 0.36 | 170 ± 3.7 | 0.85 | 72.2 ± 1.8 | 0.27 | 226 ± 2.7 | 0.14 | 428.5 ± 2.7 | – | – | – | – | – | –
3 | Cc1cc(C)c(C(=O)NCc2nn(CN3CCN(c4ccc([N+](=O)[O-])cc4)CC3)c(=S)n2-c2ccccc2)c(S)n1 [Compound 8] | – | >>1 ^c | 142 ± 6.3 | >>1 ^c | 84.3 ± 6.8 | >>1 ^c | 178 ± 5.3 | >>1 ^c | 321 ± 6.8 | >>1 ^c | 306 ± 4.9 | Non-toxic ^b | – | – | – | – | –
4 | Cc1cc(C)c(C(=O)NCc2nn(CN3CCN(c4cccc(Cl)c4)CC3)c(=S)n2C)c(S)n1 [Compound 9, 4,6-dimethyl-N-[(4-methyl-5-thioxo-2-{[4-(3-chlorophenyl)piperazinyl]methyl}-4,5-dihydro-1H-1,2,4-triazol-3-yl)methyl]-2-sulfanylpyridine-3-carboxamide] | – | >>1 ^c | 231 ± 7.1 | >>1 ^c | 88.6 ± 7.9 | >>1 ^c | 152 ± 2.7 | >>1 ^c | 260 ± 4.1 | >>1 ^c | 253 ± 5.7 | Non-toxic ^b | – | – | – | – | –
5 | Cc1cc(C)c(C(=O)NCc2nn(CN3CCN(c4ccc([N+](=O)[O-])cc4)CC3)c(=S)n2C)c(S)n1 [Compound 10, 4,6-dimethyl-N-[(4-methyl-5-thioxo-2-{[4-(4-nitrophenyl)piperazinyl]methyl}-4,5-dihydro-1H-1,2,4-triazol-3-yl)methyl]-2-sulfanylpyridine-3-carboxamide] | – | >>1 ^c | 212 ± 3.7 | >>1 ^c | 87.2 ± 5.2 | >>1 ^c | 148 ± 3.7 | >>1 ^c | 210 ± 3.3 | >>1 ^c | 176 ± 6.4 | Non-toxic ^b | – | – | – | – | –
6 | Cc1ccc(N2CCN(Cn3nc(CNC(=O)c4c(C)cc(C)nc4S)n(C)c3=S)CC2)cc1 [Compound 11] | 271 ± 7.1 | 2.28 | 119 ± 3.4 | 4.69 | 57.7 ± 4.8 | 1.98 | 137 ± 5.7 | 1.06 | 255 ± 4.8 | 1.12 | 242 ± 4.1 | – | – | – | – | – | –
7 | Cc1cc(C)c(C(=O)NCc2nn(CN3CCN(c4cccc(Cl)c4)CC3)c(=S)n2C(C)C)c(S)n1 [Compound 12, 4,6-dimethyl-N-[(4-(propan-2-yl)-5-thioxo-2-{[4-(3-chlorophenyl)piperazinyl]-methyl}-4,5-dihydro-1H-1,2,4-triazol-3-yl)methyl]-2-sulfanylpyridine-3-carboxamide] | 342.5 ± 3.4 | 1.30 | 263 ± 5.7 | 1.39 | 247 ± 4.9 | 0.77 | 445.9 ± 2.3 | 0.70 | 487 ± 5.9 | 0.73 | 471.2 ± 3.7 | – | – | – | – | – | –
8 | Cc1cc(C)c(C(=O)NCc2nn(CN3CCN(c4ccc([N+](=O)[O-])cc4)CC3)c(=S)n2C(C)C)c(S)n1 [Compound 13] | 436.1 ± 2.7 | 3.63 | 120 ± 8.5 | 2.98 | 146 ± 3.6 | 2.26 | 193 ± 3.7 | 1.04 | 419 ± 6.2 | 1.11 | 393 ± 7.4 | – | – | – | – | – | –
9 | COc1cccc2c1C(=O)c1c(O)c3c(c(O)c1C2=O)C[C@@](O)(C(=O)CO)C[C@@H]3O[C@H]1C[C@H](N)[C@H](O)[C@H](C)O1 [Doxorubicin, doxorubicin] | – | – | – | – | – | – | – | – | – | – | – | – | 7.62 ± 0.17 | 4.23 | 0.92 ± 0.23 | 30.67 | –
10 | Nn1c(Sc2c(O)c3ccccc3oc2=O)nnc1-c1ccncc1 [II] | – | – | – | – | – | – | – | – | – | – | – | – | – | – | – | – | 1.93
